Key:
Aromatase = target: T1, Aromatase (Homo sapiens, UniProt P11511);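 note: tritiated androstenedione turnover by human CYP19 with NADPH over 15 min, measured through liquid scintillation counting, value is the concentration halving enzyme activity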
T1 sequence (P11511 whole entry): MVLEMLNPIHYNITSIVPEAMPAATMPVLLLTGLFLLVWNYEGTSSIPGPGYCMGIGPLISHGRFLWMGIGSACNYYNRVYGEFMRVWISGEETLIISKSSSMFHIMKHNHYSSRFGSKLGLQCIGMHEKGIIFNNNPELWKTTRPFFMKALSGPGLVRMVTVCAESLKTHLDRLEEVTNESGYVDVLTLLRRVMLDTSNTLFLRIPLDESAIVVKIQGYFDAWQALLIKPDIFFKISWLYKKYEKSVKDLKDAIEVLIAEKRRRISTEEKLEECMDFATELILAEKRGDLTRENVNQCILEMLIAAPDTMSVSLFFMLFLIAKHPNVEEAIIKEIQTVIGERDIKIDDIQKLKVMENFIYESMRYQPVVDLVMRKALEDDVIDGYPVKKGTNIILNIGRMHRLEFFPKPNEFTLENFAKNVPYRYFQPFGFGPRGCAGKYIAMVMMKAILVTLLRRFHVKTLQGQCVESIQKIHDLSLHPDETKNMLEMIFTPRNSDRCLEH

CYP19 (aromatase) [1] = target: T2, CYP19 (aromatase) (Homo sapiens, UniProt P11511); assay: Inhibition of human CYP19 assessed as residual activity at 10 uM using [1beta-3H]-androstenedione as substrate after 15 mins in presence of NADPH by liquid scintillation counter method relative to control; conditions: probe [1beta-3H]-androstenedione, read-out: Activity
T2 sequence (P11511 whole entry): T1 sequence (P11511 whole entry)

CYP19 (aromatase) [2] = target: T2, CYP19 (aromatase); assay: Inhibition of human CYP19 assessed as residual activity at 0.1 uM using [1beta-3H]-androstenedione as substrate after 15 mins in presence of NADPH by liquid scintillation counter method relative to control; conditions: probe [1beta-3H]-androstenedione, read-out: Activity

For `CCN(CC)c1ccc2cc(-c3nc(CC(=O)OC)cs3)c(=O)oc2c1`, the IC50 (Aromatase) was > 10 µM and the activity at 0.25 h, 10 µM (CYP19 (aromatase) [1]) was 55%.

Work on `CCOC(=O)c1csc(-c2cc3ccc(N(CC)CC)cc3oc2=O)n1` yielded an IC50 (Aromatase) of 1.1 µM and an activity at 0.25 h, 10 µM (CYP19 (aromatase) [1]) of 22%.

With `CCOC(=O)c1oc(-c2cc3ccc(N(CC)CC)cc3oc2=O)nc1C` the IC50 (Aromatase) was > 10 µM and the activity at 0.25 h, 10 µM (CYP19 (aromatase) [1]) was 22 to 104%.

In the case of `COc1ccc2ccc(=O)oc2c1` [HERNIARIN], the IC50 (Aromatase) is reported as > 10 µM and the activity at 0.25 h, 10 µM (CYP19 (aromatase) [1]) is reported as 96%.

With `COc1ccc2cc(-c3cc4ccc(OC)cc4oc3=O)c(=O)oc2c1` the IC50 (Aromatase) was > 10 µM and the activity at 0.25 h, 10 µM (CYP19 (aromatase) [1]) was 77%.

With `O=c1ccc2ccc(-c3ccccn3)cc2o1` the IC50 (Aromatase) was > 10 µM and the activity at 0.25 h, 10 µM (CYP19 (aromatase) [1]) was 96%.

In the case of `COc1ccc(-c2ccc3ccc(=O)oc3c2)cc1`, the IC50 (Aromatase) is reported as > 10 µM.

`CCN(CC)c1ccc2ccc(=O)oc2c1` was tested, and the IC50 (Aromatase) was > 10 µM and the activity at 0.25 h, 10 µM (CYP19 (aromatase) [1]) was 86%.

For `O=c1ccc2ccc(-c3cccnc3)cc2o1`, the IC50 (Aromatase) was 0.0303 µM, the activity at 0.25 h, 10 µM (CYP19 (aromatase) [1]) was 0% and the activity at 0.25 h, 0.1 µM (CYP19 (aromatase) [2]) was 25%.

For `O=c1ccc2ccc(-c3ccccc3)cc2o1`, the IC50 (Aromatase) was > 10 µM.

`O=c1ccc2ccc(-c3ccncc3)cc2o1` showed an IC50 (Aromatase) of 2.6 µM, an activity at 0.25 h, 10 µM (CYP19 (aromatase) [1]) of 14% and an activity at 0.25 h, 0.1 µM (CYP19 (aromatase) [2]) of 92%.

Compound `CCN(CC)c1ccc2cc(-c3nc(C)cs3)c(=O)oc2c1` has an IC50 (Aromatase) of 1.1 µM and an activity at 0.25 h, 10 µM (CYP19 (aromatase) [1]) of 15%.

With `CCN(CC)c1ccc2cc(-c3ncco3)c(=O)oc2c1` the IC50 (Aromatase) was > 10 µM and the activity at 0.25 h, 10 µM (CYP19 (aromatase) [1]) was 22 to 104%.

For `CCN(CC)c1ccc2cc(-c3nc(-c4ccccc4)cs3)c(=O)oc2c1`, the IC50 (Aromatase) was > 10 µM and the activity at 0.25 h, 10 µM (CYP19 (aromatase) [1]) was 65%.

`CCN(CC)c1ccc2cc(-c3cc4ccc(N(CC)CC)cc4oc3=O)c(=O)oc2c1` showed an IC50 (Aromatase) of 0.0287 µM, an activity at 0.25 h, 10 µM (CYP19 (aromatase) [1]) of 0% and an activity at 0.25 h, 0.1 µM (CYP19 (aromatase) [2]) of 30%.

With `CCN(CC)c1ccc2cc(-c3coc(-c4ccccc4)n3)c(=O)oc2c1` the IC50 (Aromatase) was > 10 µM and the activity at 0.25 h, 10 µM (CYP19 (aromatase) [1]) was 22 to 104%.

In the case of `CCN(CC)c1ccc2cc(-c3cnco3)c(=O)oc2c1`, the IC50 (Aromatase) is reported as 3.1 µM and the activity at 0.25 h, 10 µM (CYP19 (aromatase) [1]) is reported as 22 to 104%.
